Results from ChEMBL document CHEMBL3351789, “Triazolopyridines as selective JAK1 inhibitors: from hit identification to GLPG0634” (J Med Chem, 2014).
Values after ≈ are worked out from the molar mass of the structure shown.

Legend:
[1] = molecular target: T1, Tyrosine-protein kinase JAK1 (Homo sapiens, UniProt P23458); test: Inhibition of human recombinant JAK1
Homo sapiens [2] = organism: Homo sapiens; test: Selectivity index, ratio of IC50 for human recombinant JAK2 to IC50 for human recombinant JAK1
Homo sapiens [3] = organism: Homo sapiens; test: Selectivity index, ratio of IC50 for human recombinant JAK3 to IC50 for human recombinant JAK1
Homo sapiens [4] = organism: Homo sapiens; test: Selectivity index, ratio of IC50 for human recombinant TYK2 to IC50 for human recombinant JAK1
[5] = Metabolic stability in rat liver microsomes assessed as compound remaining after 60 mins; type: ADME; conditions: read-out: Stability
[6] = molecular target: T1, Tyrosine-protein kinase JAK1; test: Inhibition of JAK1 in human whole blood assessed as inhibition of IL-6-induced pSTAT1
[7] = Kinetic solubility of the compound at pH 7.4; conditions: buffer
[8] = molecular target: T2, Tyrosine-protein kinase JAK2 (Homo sapiens, UniProt O60674); test: Inhibition of JAK2 in human whole blood assessed as inhibition of GM-CSF-induced pSTAT5
[9] = Plasma protein binding in rat
[10] = Tmax in rat at 5 mg/kg, po; type: ADME, organism-based; set-up: dose 5 mg/kg, route oral; conditions: in vivo
[11] = Clearance in rat at 1 mg/kg, iv; type: ADME, organism-based; set-up: dose 1 mg/kg, route intravenous; conditions: in vivo
[12] = AUC (0 to infinity) in rat at 5 mg/kg, po; type: ADME, organism-based; set-up: time infinity, dose 5 mg/kg, route oral; conditions: plasma
[13] = AUC (0 to infinity) in rat at 1 mg/kg, iv; type: ADME, organism-based; set-up: time infinity, dose 1 mg/kg, route intravenous; conditions: plasma
[14] = Half life in rat at 1 mg/kg, iv; type: ADME, organism-based; set-up: dose 1 mg/kg, route intravenous; conditions: in vivo
[15] = Oral bioavailability in rat at 5 mg/kg; type: ADME, organism-based; conditions: in vivo
[16] = Bioavailability in rat at 1 mg/kg, iv; type: ADME, organism-based; conditions: in vivo
[17] = Half life in rat at 5 mg/kg, po; type: ADME, organism-based; set-up: dose 5 mg/kg, route oral; conditions: in vivo
[18] = molecular target: Tyrosine-protein kinase JAK3 (Homo sapiens, UniProt P52333); test: Inhibition of human recombinant JAK3
[19] = molecular target: Non-receptor tyrosine-protein kinase TYK2 (Homo sapiens, UniProt P29597); test: Inhibition of human recombinant TYK2
[20] = molecular target: Tyrosine-protein kinase SYK (Homo sapiens, UniProt P43405); test: Inhibition of SYK (unknown origin)
[21] = molecular target: Mitogen-activated protein kinase kinase kinase 7 (Homo sapiens, UniProt O43318); test: Inhibition of TAK1 (unknown origin)
[22] = molecular target: Inhibitor of nuclear factor kappa-B kinase subunit beta (Homo sapiens, UniProt O14920); test: Inhibition of IKKbeta (unknown origin)
[23] = molecular target: T2, Tyrosine-protein kinase JAK2; test: Inhibition of human recombinant JAK2
[24] = molecular target: Cyclin-dependent kinase 2 (Homo sapiens, UniProt P24941); test: Inhibition of CDK2 (unknown origin)
[25] = molecular target: Receptor-interacting serine/threonine-protein kinase 2 (Homo sapiens, UniProt O43353); test: Inhibition of RIPK2 (unknown origin)
[26] = molecular target: MAP kinase-activated protein kinase 5 (Homo sapiens, UniProt Q8IW41); test: Inhibition of MAPKAPK5 (unknown origin)
[27] = molecular target: Glycogen synthase kinase-3 beta (Homo sapiens, UniProt P49841); test: Inhibition of GSK3beta (unknown origin)
[28] = molecular target: Fibroblast growth factor receptor 3 (Homo sapiens, UniProt P22607); test: Inhibition of FGFR3 (unknown origin)
[29] = molecular target: Rho-associated protein kinase 1 (Homo sapiens, UniProt Q13464); test: Inhibition of ROCK1 (unknown origin)
[30] = molecular target: Serine/threonine-protein kinase TBK1 (Homo sapiens, UniProt Q9UHD2); test: Inhibition of TBK1 (unknown origin)
[31] = molecular target: Mitogen-activated protein kinase 14 (Homo sapiens, UniProt Q16539); test: Inhibition of p38alpha (unknown origin)
[32] = molecular target: Tyrosine-protein kinase Lck (Homo sapiens, UniProt P06239); test: Inhibition of LCK (unknown origin)
[33] = molecular target: Protein-tyrosine kinase 2-beta (Homo sapiens, UniProt Q14289); test: Inhibition of PYK2 (unknown origin)
[34] = Inhibition of PKA (unknown origin); set-up: species or system Homo sapiens

T1 sequence (P23458 whole entry): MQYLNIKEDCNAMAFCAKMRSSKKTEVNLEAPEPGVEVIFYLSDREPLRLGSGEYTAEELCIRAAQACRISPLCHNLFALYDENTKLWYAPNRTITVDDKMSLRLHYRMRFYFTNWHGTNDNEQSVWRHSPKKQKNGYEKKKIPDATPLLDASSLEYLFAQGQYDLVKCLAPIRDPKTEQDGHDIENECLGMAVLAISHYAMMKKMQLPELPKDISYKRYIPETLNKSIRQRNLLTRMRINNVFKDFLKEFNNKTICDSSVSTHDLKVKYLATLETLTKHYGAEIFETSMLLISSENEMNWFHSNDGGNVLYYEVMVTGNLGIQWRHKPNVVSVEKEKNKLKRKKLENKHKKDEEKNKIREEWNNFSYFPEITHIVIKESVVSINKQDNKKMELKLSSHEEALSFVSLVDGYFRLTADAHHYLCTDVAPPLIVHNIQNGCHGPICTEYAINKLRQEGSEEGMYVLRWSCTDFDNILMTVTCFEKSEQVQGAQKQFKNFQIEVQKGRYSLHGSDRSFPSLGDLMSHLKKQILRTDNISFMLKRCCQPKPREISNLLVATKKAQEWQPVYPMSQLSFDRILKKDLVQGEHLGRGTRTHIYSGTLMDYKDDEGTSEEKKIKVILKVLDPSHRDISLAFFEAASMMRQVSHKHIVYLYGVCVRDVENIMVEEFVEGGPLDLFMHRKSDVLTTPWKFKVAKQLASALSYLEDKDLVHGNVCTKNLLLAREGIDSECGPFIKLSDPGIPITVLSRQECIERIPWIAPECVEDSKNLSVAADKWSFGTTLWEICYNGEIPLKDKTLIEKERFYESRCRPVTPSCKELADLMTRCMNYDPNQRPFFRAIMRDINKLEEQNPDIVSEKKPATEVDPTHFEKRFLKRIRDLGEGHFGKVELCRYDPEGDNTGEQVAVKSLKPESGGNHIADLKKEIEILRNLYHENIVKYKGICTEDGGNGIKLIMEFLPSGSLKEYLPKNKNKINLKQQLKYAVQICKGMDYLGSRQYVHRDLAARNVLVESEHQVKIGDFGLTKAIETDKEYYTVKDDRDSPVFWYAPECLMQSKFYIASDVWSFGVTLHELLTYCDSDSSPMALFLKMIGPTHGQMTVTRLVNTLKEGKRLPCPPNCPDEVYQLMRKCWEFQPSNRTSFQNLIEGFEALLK
T2 sequence (O60674 whole entry): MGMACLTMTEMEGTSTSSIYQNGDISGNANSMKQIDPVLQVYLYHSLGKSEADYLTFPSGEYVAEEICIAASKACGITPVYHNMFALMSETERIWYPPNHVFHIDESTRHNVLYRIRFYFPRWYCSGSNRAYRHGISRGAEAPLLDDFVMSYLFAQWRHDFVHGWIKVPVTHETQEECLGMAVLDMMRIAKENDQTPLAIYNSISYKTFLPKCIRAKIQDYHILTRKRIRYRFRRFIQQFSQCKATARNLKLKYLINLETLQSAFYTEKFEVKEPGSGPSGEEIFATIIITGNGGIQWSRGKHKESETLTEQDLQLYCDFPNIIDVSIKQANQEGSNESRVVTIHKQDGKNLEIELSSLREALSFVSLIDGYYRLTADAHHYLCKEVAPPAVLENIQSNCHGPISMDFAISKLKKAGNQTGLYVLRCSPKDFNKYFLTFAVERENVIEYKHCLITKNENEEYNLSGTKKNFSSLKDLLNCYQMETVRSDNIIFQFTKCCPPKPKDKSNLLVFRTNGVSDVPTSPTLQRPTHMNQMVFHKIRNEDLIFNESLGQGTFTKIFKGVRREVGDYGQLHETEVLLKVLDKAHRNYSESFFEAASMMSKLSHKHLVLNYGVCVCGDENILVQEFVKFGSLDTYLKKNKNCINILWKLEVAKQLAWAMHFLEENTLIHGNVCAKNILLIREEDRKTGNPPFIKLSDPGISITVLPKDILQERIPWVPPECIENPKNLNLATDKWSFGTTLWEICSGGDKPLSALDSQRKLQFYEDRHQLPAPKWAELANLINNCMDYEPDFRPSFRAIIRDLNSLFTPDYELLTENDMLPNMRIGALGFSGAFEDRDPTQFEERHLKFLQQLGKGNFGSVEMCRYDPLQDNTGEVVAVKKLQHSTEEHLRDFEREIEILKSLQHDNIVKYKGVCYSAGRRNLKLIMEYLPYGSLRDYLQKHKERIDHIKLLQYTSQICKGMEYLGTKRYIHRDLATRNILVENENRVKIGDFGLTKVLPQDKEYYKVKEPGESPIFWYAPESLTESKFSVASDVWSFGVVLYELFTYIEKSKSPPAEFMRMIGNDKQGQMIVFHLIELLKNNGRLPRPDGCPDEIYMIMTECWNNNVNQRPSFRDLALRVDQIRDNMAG
Chain of Receptor-interacting serine/threonine-protein kinase 2 (O43353 whole entry): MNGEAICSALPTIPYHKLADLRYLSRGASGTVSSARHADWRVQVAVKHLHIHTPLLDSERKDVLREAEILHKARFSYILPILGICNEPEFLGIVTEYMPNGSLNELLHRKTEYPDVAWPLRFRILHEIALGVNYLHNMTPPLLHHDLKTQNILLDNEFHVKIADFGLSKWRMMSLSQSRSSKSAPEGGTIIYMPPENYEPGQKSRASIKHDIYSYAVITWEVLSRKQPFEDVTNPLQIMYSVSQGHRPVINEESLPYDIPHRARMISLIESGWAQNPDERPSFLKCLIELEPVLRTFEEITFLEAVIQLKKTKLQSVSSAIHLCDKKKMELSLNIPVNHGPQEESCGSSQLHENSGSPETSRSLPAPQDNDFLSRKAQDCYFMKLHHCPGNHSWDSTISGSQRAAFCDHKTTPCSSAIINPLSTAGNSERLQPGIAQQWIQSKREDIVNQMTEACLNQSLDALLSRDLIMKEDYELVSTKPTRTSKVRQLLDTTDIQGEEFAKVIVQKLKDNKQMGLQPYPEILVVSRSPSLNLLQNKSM
Chain of Fibroblast growth factor receptor 3 (P22607 whole entry): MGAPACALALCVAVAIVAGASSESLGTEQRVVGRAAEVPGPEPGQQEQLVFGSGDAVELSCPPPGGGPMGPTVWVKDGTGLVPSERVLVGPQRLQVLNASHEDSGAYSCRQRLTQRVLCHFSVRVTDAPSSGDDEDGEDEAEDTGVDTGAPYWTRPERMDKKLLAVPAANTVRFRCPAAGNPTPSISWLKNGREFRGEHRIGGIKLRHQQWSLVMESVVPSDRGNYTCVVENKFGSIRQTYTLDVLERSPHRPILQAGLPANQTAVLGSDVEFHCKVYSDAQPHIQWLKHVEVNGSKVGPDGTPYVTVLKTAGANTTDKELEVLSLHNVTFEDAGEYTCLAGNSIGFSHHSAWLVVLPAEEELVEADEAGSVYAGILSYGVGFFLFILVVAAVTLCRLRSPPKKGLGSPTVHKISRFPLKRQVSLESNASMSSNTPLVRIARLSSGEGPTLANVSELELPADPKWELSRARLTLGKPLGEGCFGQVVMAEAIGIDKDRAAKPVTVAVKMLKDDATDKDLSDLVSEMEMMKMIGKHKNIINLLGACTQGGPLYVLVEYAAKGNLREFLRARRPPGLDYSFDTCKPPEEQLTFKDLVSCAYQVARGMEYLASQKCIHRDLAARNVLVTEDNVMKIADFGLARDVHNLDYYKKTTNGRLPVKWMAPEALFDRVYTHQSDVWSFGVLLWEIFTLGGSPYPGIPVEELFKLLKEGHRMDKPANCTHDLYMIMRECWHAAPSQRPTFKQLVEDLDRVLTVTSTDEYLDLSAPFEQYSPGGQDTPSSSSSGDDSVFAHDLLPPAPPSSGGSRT
Chain of Serine/threonine-protein kinase TBK1 (Q9UHD2 whole entry): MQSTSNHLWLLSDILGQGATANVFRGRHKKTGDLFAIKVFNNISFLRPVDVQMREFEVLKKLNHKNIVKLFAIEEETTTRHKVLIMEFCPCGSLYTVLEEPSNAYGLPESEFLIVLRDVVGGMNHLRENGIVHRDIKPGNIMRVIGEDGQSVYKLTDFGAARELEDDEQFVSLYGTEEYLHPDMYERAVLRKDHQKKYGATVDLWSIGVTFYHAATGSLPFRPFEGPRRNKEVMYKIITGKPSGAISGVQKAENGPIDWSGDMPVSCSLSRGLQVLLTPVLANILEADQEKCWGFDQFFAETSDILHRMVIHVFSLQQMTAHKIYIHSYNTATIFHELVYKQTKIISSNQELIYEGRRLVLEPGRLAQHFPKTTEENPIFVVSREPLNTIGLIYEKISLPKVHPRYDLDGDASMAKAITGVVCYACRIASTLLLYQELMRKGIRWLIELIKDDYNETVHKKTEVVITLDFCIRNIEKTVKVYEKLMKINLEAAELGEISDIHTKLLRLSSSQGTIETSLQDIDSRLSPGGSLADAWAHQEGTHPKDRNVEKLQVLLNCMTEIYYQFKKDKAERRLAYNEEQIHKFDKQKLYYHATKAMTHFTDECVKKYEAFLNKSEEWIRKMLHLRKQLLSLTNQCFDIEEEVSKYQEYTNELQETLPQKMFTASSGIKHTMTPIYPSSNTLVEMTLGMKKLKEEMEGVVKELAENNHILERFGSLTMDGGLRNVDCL
Chain of Mitogen-activated protein kinase 14 (Q16539 whole entry): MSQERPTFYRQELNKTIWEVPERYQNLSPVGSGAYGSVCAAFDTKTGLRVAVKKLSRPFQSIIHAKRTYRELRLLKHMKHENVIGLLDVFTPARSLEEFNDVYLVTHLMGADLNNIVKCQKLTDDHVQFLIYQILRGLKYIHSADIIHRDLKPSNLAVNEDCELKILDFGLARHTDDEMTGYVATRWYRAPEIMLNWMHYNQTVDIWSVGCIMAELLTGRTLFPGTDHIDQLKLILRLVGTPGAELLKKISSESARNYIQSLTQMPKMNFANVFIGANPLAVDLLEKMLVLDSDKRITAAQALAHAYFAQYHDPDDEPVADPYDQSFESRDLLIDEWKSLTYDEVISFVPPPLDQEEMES

SMILES | IC50 ([1]; read-out: IC50) | Ratio IC50 (Homo sapiens [2]) | Ratio IC50 (Homo sapiens [3]) | Ratio IC50 (Homo sapiens [4]) | further results
COc1ccc(-c2cccc3nc(N4CCCCC4)nn23)cc1 | > 10000 nM |  |  |  | 
COc1ccc(-c2cccc3nc(NC(=O)c4ccccc4)nn23)cc1 | > 10000 nM |  |  |  | 
COc1ccc(-c2cccc3nc(NC(=O)C(C)C)nn23)cc1 | > 10000 nM |  |  |  | 
CCC(=O)Nc1nc2cccc(-c3ccc(OC)cc3)n2n1 | 1980 nM | 0.5 |  |  | 
O=C(Nc1nc2cccc(-c3cccc(Cl)c3)n2n1)C1CC1 | 142 nM | 1.1 | 6.7 | 2.4 | 
N#Cc1ccc(OCC2CN(c3ccc(-c4cccc5nc(NC(=O)C6CC6)nn45)cc3)C2)cc1 | 147 nM | 7.5 |  |  | 
COc1ccccc1-c1cccc2nc(NC(=O)C3CC3)nn12 | 371 nM | 1.5 | 2 | 2.8 | 
O=C(Nc1nc2cccc(-c3ccc(CNC(=O)C(F)(F)F)cc3)n2n1)C1CC1 | 16 nM | 2.6 | 9.5 | 6.2 | remaining at 1 h [5]: 80%; IC50 [6]: 4470 nM; solubility kinetic [7]: > 80 µg/mL; IC50 [8]: > 30000 nM; fraction unbound [9]: 0.17
CCOc1ccc(-c2nccc3nc(NC(=O)C4CC4)nn23)cc1 | 418 nM | 1.5 |  |  | 
O=C(Nc1nc2cccc(-c3ccc(CN4CCOCC4)cc3)n2n1)C1CC1 |  |  |  |  | remaining at 1 h [5]: 38%; Tmax [10]: 19.8 min; clearance [11]: 35.3 mL/min/kg; AUC(0-inf) [12]: 1440 ng·h/mL; solubility kinetic [7]: > 38 µg/mL; IC50 [8]: > 30000 nM; AUC(0-inf) [13]: 470 ng·h/mL; half-life [14]: 44.4 min; bioavailability [15]: 45%; bioavailability [16]: 62%; fraction unbound [9]: 0.29; half-life [17]: 55.2 min
CCOc1ccc(-c2cccn3nc(NC(=O)C4CC4)nc23)cc1 | 67 nM | 2.2 |  |  | 
CCOc1ccc(-c2cccc3nc(NC(=O)C4CC4)nn23)cc1 | 27 nM | 2 |  |  | 
O=C(Nc1nc2cccc(-c3cccc(OCc4ccccc4)c3)n2n1)C1CC1 | 103 nM | 1 | 3 | 18 | 
COc1ccc(-c2cccc3nc(NC(=O)C4(C)CC4)nn23)cc1 | > 10000 nM |  |  |  | 
COc1ccc(-c2cccc3nc(N(C)C(=O)C4CC4)nn23)cc1 | > 10000 nM |  |  |  | 
COc1ccc(-c2cccc3nc(-c4cccnc4)nn23)cc1 | > 10000 nM |  |  |  | 
COc1ccc(-c2cccc3nc(NCC4CC4)nn23)cc1 | > 10000 nM |  |  |  | 
O=C(Nc1nc2cccc(-c3ccc(NS(=O)(=O)C4CC4)cc3)n2n1)C1CC1 |  |  |  |  | fraction unbound [9]: 0.1
COc1ccc(-c2cc(C(F)(F)F)cn3nc(NC(=O)C4CC4)nc23)cc1 |  |  |  |  | IC50 [1]: Not Active
O=C(Nc1nc2cccc(-c3ccc(Cl)cc3)n2n1)C1CC1 | 156 nM | 3.1 | 7.4 | 28.2 | 
CCOc1ccc(-c2cncc3nc(NC(=O)C4CC4)nn23)cc1 | 3100 nM | 1 |  |  | 
C[C@@H]1CCN(C(=O)CC#N)C[C@@H]1N(C)c1ncnc2[nH]ccc12 [TOFACITINIB] |  |  |  |  | remaining at 1 h [5]: 27%
O=C(Nc1nc2cccc(-c3cccc4ncccc34)n2n1)C1CC1 | 2550 nM | 0.7 | 1.5 | > 1.6 | 

SMILES | IC50 ([1]; read-out: IC50) | Ratio IC50 (Homo sapiens [2]) | Ratio IC50 (Homo sapiens [3]) | Ratio IC50 (Homo sapiens [4]) | further results
COc1ccc(-c2cccc3nc(NC(=O)C4CC4)nn23)cc1 | 70 nM | 2 | 7.5 | 7.4 | IC50 [18]: 528 nM; IC50 [19]: 519 nM; IC50 [20]: 2270 nM; IC50 [21]: > 10000 nM; IC50 [22]: 24700 nM; IC50 [23]: 138 nM; IC50 [24]: > 10000 nM; IC50 [25]: 51000 nM; IC50 [26]: > 10000 nM; IC50 [27]: 7110 nM; IC50 [28]: > 5740 nM; IC50 [29]: > 10000 nM; IC50 [30]: > 4000 nM; IC50 [31]: > 10000 nM; IC50 [32]: 4440 nM; IC50 [33]: 3180 nM; IC50 [34]: 40000 nM
CN1CCN(Cc2ccc(-c3cccc4nc(NC(=O)C5CC5)nn34)cc2)CC1 | > 4000 nM |  |  |  | 
COc1ccc(-c2cccc3nc(NS(=O)(=O)C4CC4)nn23)cc1 | 5740 nM |  |  |  | 
N#CCc1ccccc1NCc1ccc(-c2cccc3nc(NC(=O)C4CC4)nn23)cc1 | 1.4 nM | 11.4 | 26 | 9 | solubility kinetic [7]: 9.4 µg/mL (≈ 22.2 µM); fraction unbound [9]: 0.01
COc1ccc(-c2cccc3nc(NC(C)=O)nn23)cc1 | > 4000 nM |  |  |  | 
COc1ncc(-c2cccc3nc(NC(=O)C4CC4)nn23)cn1 | 975 nM | 2.1 | > 4.1 | > 4.1 | 
O=C(Nc1nc2cccc(-c3ccccc3)n2n1)C1CC1 | 184 nM | 2.3 | 7.1 | 4.1 | 
CC(C)(C)OCc1ccccc1-c1cccc2nc(NC(=O)C3CC3)nn12 | > 10000 nM |  |  |  | 
O=C(Nc1nc2cccc(-c3ccc(Cc4ccc(O)c(CO)c4)cc3)n2n1)C1CC1 | 8.3 nM | 1.7 |  |  | solubility kinetic [7]: 28 µg/mL (≈ 67.6 µM)
COc1ccc(-c2cccc3nc(NC(=O)C4CC4)nn23)cn1 | 547 nM | 1.5 | 4.4 | 6.2 | 
Nc1nc2cccc(-c3ccc(CN4CCS(=O)(=O)CC4)cc3)n2n1 |  |  |  |  | IC50 [6]: 11900 nM; IC50 [8]: > 100000 nM
O=C(Nc1nc2cccc(-c3cn[nH]c3)n2n1)C1CC1 | 1350 nM | 1.1 | 2.1 | > 3 | 
CCOc1ccc(-c2c(OC)ccc3nc(NC(=O)C4CC4)nn23)cc1 | 3010 nM | > 1 |  |  | 
COc1ccc(-c2cccc3nc(N)nn23)cc1 | 3060 nM | 0.6 |  |  | 
O=C(Nc1nc2cccc(-c3ccc(CNC4CCS(=O)(=O)C4)cc3)n2n1)C1CC1 (stereo not given) | 41 nM | 2.1 | 8 | 9.6 | remaining at 1 h [5]: 85%; IC50 [6]: 6150 nM; solubility kinetic [7]: > 85 µg/mL; IC50 [8]: > 30000 nM
COCc1cccc(-c2cccc3nc(NC(=O)C4CC4)nn23)c1 | 572 nM | 0.9 | 3.8 | 2.8 | 
O=C(Nc1nc2nccc(-c3ccccc3)n2n1)C1CC1 |  |  |  |  | IC50 [1]: Not Active
COc1ccc(-c2cccc3nc(Nc4ccc(NC(C)=O)cc4)nn23)cc1 | 2.8 nM | 0.9 |  |  | 
O=C(NCCc1ccn(-c2ccccc2)n1)c1ccc(-c2cccc3nc(NC(=O)C4CC4)nn23)cc1 | 0.6 nM | 5.3 | 21 | 66 | solubility kinetic [7]: 4 µg/mL (≈ 8.14 µM); fraction unbound [9]: 0.01
CNC(=O)Nc1nc2cccc(-c3ccc(OC)cc3)n2n1 | 413 nM | 0.7 |  |  | 
O=C(Nc1nc2cccc(-c3ccc(CN4CCC(F)(F)CC4)cc3)n2n1)C1CC1 | 27 nM | 1.1 | 8.7 | 3.2 | remaining at 1 h [5]: 26%; Tmax [10]: 15 min; IC50 [6]: 2750 nM; AUC(0-inf) [12]: 690 ng·h/mL; solubility kinetic [7]: 27 µg/mL (≈ 65.6 µM); IC50 [8]: > 10000 nM; fraction unbound [9]: 0.3; half-life [17]: 55.2 min
COc1ccc(-c2cccc3nc(N(C)C)nn23)cc1 | > 10000 nM |  |  |  | 
